PubChem BioAssay (NCI)
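How tested: cells in 96-well plates exposed to compound for 48 hours at five concentrations. At the GI50, growth is halved. TGI: concentration producing complete growth inhibition.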

Tests used:
Assay in all cases: NCI-60 cell line screen, 48 h
ACHN renal = system: ACHN renal
EKVX NSCLC = system: EKVX NSCLC
HCC-2998 colon = system: HCC-2998 colon
HCT-116 colon = system: HCT-116 colon
HOP-92 NSCLC = system: HOP-92 NSCLC
HS 578T breast = system: HS 578T breast
LOX IMVI melanoma = system: LOX IMVI melanoma
NCI-H23 lung = system: NCI-H23 lung
OVCAR-3 ovarian = system: OVCAR-3 ovarian
SK-MEL-5 melanoma = system: SK-MEL-5 melanoma

SMILES	GI50 (ACHN renal)	TGI (ACHN renal)	GI50 (EKVX NSCLC)	TGI (EKVX NSCLC)	GI50 (HCC-2998 colon)	TGI (HCC-2998 colon)	GI50 (HCT-116 colon)	TGI (HCT-116 colon)	GI50 (HOP-92 NSCLC)	TGI (HOP-92 NSCLC)	GI50 (HS 578T breast)	TGI (HS 578T breast)	GI50 (LOX IMVI melanoma)	TGI (LOX IMVI melanoma)	GI50 (NCI-H23 lung)	TGI (NCI-H23 lung)	GI50 (OVCAR-3 ovarian)	TGI (OVCAR-3 ovarian)	GI50 (SK-MEL-5 melanoma)	TGI (SK-MEL-5 melanoma)
CCCCCCC1N=C(N)N=C(N)N1c1ccc(Cl)cc1 (centres undefined)	> 100 µM	> 100 µM	8.7 µM	45.4 µM	8.95 µM	22 µM	3.2 µM	15.8 µM	2.62 µM	22.1 µM	2.35 µM	18.2 µM	3.87 µM	14.7 µM	5.79 µM	38 µM	12.2 µM	32.6 µM	3.47 µM	14.7 µM
O=C(CC1(O)C(=O)Nc2c(Cl)ccc(Cl)c21)c1ccc(C2CC2)cc1 (centres undefined)	2.19 µM	20.2 µM	2.15 µM	20.7 µM	1.85 µM	18.2 µM	0.375 µM	6.05 µM	0.769 µM	14.8 µM	1.83 µM	8.58 µM	0.392 µM	14 µM	0.772 µM	23.1 µM	3.46 µM	16.6 µM	1.37 µM	13.8 µM
COc1ccc(NC(=O)O[C@H]2[C@H](O[C@H]3[C@@H](O)COC(O[C@H]4C[C@H]5[C@@H]6CC=C7C[C@@H](O)CC[C@]7(C)[C@H]6CC[C@]5(C)[C@H]4[C@H](C)C(=O)CCC(C)C)[C@@H]3OC(C)=O)OC[C@@H](O)[C@@H]2O)cc1 (some centres undefined)	0.118 µM	> 100 µM	0.349 µM	11.2 µM	0.566 µM	32.7 µM	< 0.01 µM	14.4 µM	< 0.01 µM	2.03 µM	< 0.01 µM	0.0116 µM	< 0.01 µM	< 0.01 µM	0.0284 µM	5.03 µM	1.11 µM	31.5 µM	< 0.01 µM	0.0114 µM
COc1cc(C2C(C#N)=C(N)Oc3cc4c(cc32)OCO4)cc2c1OCO2 (centres undefined)	2.3 µM	> 100 µM	0.594 µM	> 100 µM	0.352 µM	6.11 µM	0.455 µM	> 100 µM	0.407 µM	46.8 µM	0.328 µM	> 100 µM	1 µM	> 100 µM	0.313 µM	> 100 µM	0.0928 µM	0.35 µM	0.101 µM	14.3 µM
COc1cc(/C=C/C(=O)c2ccc(Nc3nc(Nc4ccccc4)nc(Nc4ccc(Cl)cc4)n3)cc2)cc(OC)c1OC	10.8 µM	> 32.5 µM	24.1 µM	> 32.5 µM	> 32.5 µM	> 32.5 µM	2.68 µM	> 32.5 µM	1.91 µM	> 32.5 µM	15.2 µM	> 32.5 µM	7.19 µM	> 32.5 µM	11.9 µM	> 32.5 µM	8.62 µM	> 32.5 µM	4.76 µM	30.6 µM
O=C(Nc1ccc(S(=O)(=O)NC2CCCCCC2)cc1)C(c1ccccc1)S(=O)(=O)c1ccc(F)cc1 (centres undefined)	0.153 µM	0.491 µM	0.377 µM	2.95 µM	0.868 µM	2.35 µM	0.185 µM	1.7 µM	0.845 µM	3.9 µM	0.588 µM	3.05 µM	0.112 µM	0.422 µM	0.187 µM	0.933 µM	0.367 µM	2.85 µM	0.404 µM	1.72 µM
c1cnc2c(c1)Nc1cnncc1S2	–	> 100 µM	–	> 100 µM	–	> 100 µM	–	> 100 µM	–	> 100 µM	–	> 100 µM	–	> 100 µM	–	> 100 µM	–	> 100 µM	–	> 100 µM
O=C(/C=C/c1cccc(B(O)O)c1)c1cccc(B(O)O)c1	2.14 µM	4.33 µM	6.38 µM	23.1 µM	1.8 µM	3.2 µM	0.376 µM	1.57 µM	1.53 µM	3.59 µM	3.89 µM	54.8 µM	0.76 µM	2.03 µM	1.81 µM	4.44 µM	0.828 µM	2.38 µM	1.85 µM	3.83 µM
O=[N+]([O-])c1ccc(-c2ccccc2)c([As](=O)(O)O)c1	13.7 µM	30.1 µM	15.9 µM	> 100 µM	19.4 µM	45.5 µM	10.9 µM	25.4 µM	13.5 µM	95.4 µM	0.798 µM	18.4 µM	8.15 µM	46.9 µM	18.9 µM	88.2 µM	10.4 µM	29.3 µM	40.6 µM	> 100 µM
Cc1c(N2C(=O)/C(=C\c3ccc(N(C)C)cc3)N=C2c2ccccc2)c(=O)n(-c2ccccc2)n1C	> 100 µM	> 100 µM	68.4 µM	> 100 µM	> 100 µM	> 100 µM	33.7 µM	> 100 µM	31.8 µM	> 100 µM	> 100 µM	> 100 µM	> 94.4 µM	> 100 µM	> 92.2 µM	> 100 µM	> 70.6 µM	> 100 µM	36.3 µM	> 100 µM
CC(=O)OCC(=O)C1(O)C(C)CC2C3C=C(C)C4=Cc5c(cnn5-c5ccccc5)CC4(C)C3C(O)CC21C (centres undefined)	2.16 µM	9.03 µM	1.48 µM	13.1 µM	1.92 µM	3.66 µM	1.45 µM	3.12 µM	0.0261 µM	7.39 µM	1.17 µM	4.75 µM	1.69 µM	4.82 µM	2.2 µM	5.78 µM	1.67 µM	3.96 µM	1.45 µM	2.87 µM
CCc1ccccc1-n1c(N)c(C#N)c(-c2ccc(OC)c(OC)c2)c(C#N)c1=O	19.7 µM	53.7 µM	41.1 µM	> 100 µM	31.9 µM	> 100 µM	17 µM	31.1 µM	0.283 µM	29 µM	15.5 µM	41.3 µM	23.6 µM	92.2 µM	17 µM	33.3 µM	17.3 µM	33.1 µM	32.7 µM	> 100 µM
C/C(=N\Nc1cccc(Cl)n1)c1ccccn1	0.556 µM	18.4 µM	0.411 µM	18.6 µM	0.75 µM	> 100 µM	0.401 µM	> 100 µM	1.32 µM	21.1 µM	5.08 µM	> 100 µM	0.492 µM	> 25 µM	1.28 µM	> 37.6 µM	0.379 µM	13.3 µM	1.62 µM	4.62 µM
O=P1(O)c2ccccc2CS(=O)(=O)Cc2ccccc21	–	> 100 µM	–	> 100 µM	–	> 100 µM	–	> 100 µM	–	> 100 µM	–	> 100 µM	–	> 100 µM	–	> 100 µM	–	> 100 µM	–	> 100 µM
N#CSCC(=O)c1ccc(Cl)cc1	5.55 µM	19.9 µM	4.99 µM	26.5 µM	12.1 µM	27.8 µM	3.09 µM	12.7 µM	6.02 µM	29 µM	2.9 µM	16.3 µM	3.07 µM	13.3 µM	4.27 µM	32.3 µM	2.33 µM	5.26 µM	2.31 µM	14.7 µM
COc1cc2c3c(c1O)C1(C=CC(=O)C=C1)CC3N(C)CC2 (centres undefined)	–	43.4 µM	–	25.6 µM	–	24.8 µM	–	14.5 µM	–	24 µM	–	> 100 µM	–	9.28 µM	–	31.5 µM	–	22.9 µM	–	32.6 µM
COC(=O)Nc1nc2ccc(Sc3ccccc3)cc2[nH]1	1.19 µM	22.9 µM	1.64 µM	53.6 µM	0.22 µM	3.03 µM	0.0771 µM	10.1 µM	0.177 µM	7 µM	0.26 µM	11.2 µM	0.487 µM	17.2 µM	0.29 µM	31 µM	0.123 µM	0.421 µM	0.146 µM	4.08 µM
ClC1=C(Cl)C(Cl)=C(Cl)C1=Cc1ccc(Cl)cc1	0.327 µM	1.07 µM	0.816 µM	3.08 µM	1.14 µM	2.54 µM	0.237 µM	0.638 µM	1.53 µM	3.84 µM	0.585 µM	–	0.233 µM	0.71 µM	0.796 µM	2.85 µM	0.309 µM	0.853 µM	1.17 µM	2.41 µM
